{
  "source": "patent US8790653B2",
  "about": "“Peptide inhibitors for mediating stress responses” (Yeda Research and Development Co. Ltd., priority 2004, dated 2014)",
  "key": {"L12 cells with p53": {"test_system": "L12 cells with p53", "test": "Hyperthermia-induced cell death in L12 cells with active p53 (trypan blue)", "format": "cell-based", "conditions": "2 hours at 42° C., peptide 100 μg/ml", "description": "The selected candidate peptides were tested for their ability to interfere with the p53-mediated cellular stress response by testing their capacity to inhibit the response to hyperthermia of the L12 cell line (Wolf, 1984), which lacks endogenous p53 activity and had been stably transfected with the p53 gene or a control vector. In these cells, p53 activity induces growth arrest and cell survival rather than apoptosis in response to hyperthermia (Nitta, 1997).\nThe amount of cell death was assessed by staining the cells with the vital dye trypan blue (Sigma) and counting the ratio of dead/live cells per visual field with a light microscope.\nincubation for 2 hours at 42° C. induced death of all cells that lacked p53 and, in contrast, transient growth arrest and survival of about 80% of the cells with active p53. Four peptides, designated Stressin-1 to −4 (for STress RESponse Specific peptide INhibitor), were identified that at concentrations of 100 μg/ml inhibited p53-mediated growth arrest after hyperthermia and induced death of almost all cells with active p53, which is the response of L12 cells that lack p53 activity (Table 1); the peptide sequences are shown in Table 2."}, "L12 cells": {"test_system": "L12 cells", "test": "Cisplatin-induced p53-mediated cell death of L12 cells (DNA content, propidium iodide, FACS)", "format": "cell-based", "conditions": "50 μM Cisplatin, 48 hours", "description": "L12 cells were treated for 48 hours with 50 μM of the DNA-damaging agent Cisplatin and p53-mediated cell death was determined by measuring the DNA content of cells stained with propidium iodide (FIG. 1). Cells incubated in the absence of peptide responded to Cisplatin treatment with p53-mediated cell death."}, "[1]": {"test": "Ethanol toxic stress in primary hepatocyte cultures (trypan blue exclusion)", "format": "cell-based", "conditions": "primary hepatocyte cultures", "description": "(§1) To learn whether Stressin peptide may protect from toxic stress, primary hepatocyte cultures were incubated with or without ethanol at a concentration of 0.6%, and with 50 μM Stressin-1 or without peptide. After 48 hours, the numbers of dead and alive cells were determined by trypan blue exclusion (Table 3)."}, "[2]": {"test_system": "primary hepatocyte cultures", "test": "Ethanol toxic stress in primary hepatocyte cultures (trypan blue exclusion)", "format": "cell-based", "conditions": "with 0.6% ethanol; 50 μM peptide; 48 hours", "description": "as §1"}, "BALB/c mice": {"test_system": "BALB/c mice", "test": "Whole body γ-irradiation of BALB/c mice (radiation disease)", "format": "in vivo", "conditions": "6.5 Gy, 500 μg/mouse intraperitoneally one hour after irradiation", "source_text": "To test whether Stressin peptide may protect an organism from death by excessive p53 activation and tissue failure by subjecting BALB/c mice to whole body […] (6.5 Gy). A retro-inverso peptide was used to determine whether prolonged in vivo half-life would give an advantage (see Example 6); retro-inverso peptides are resistant to proteases and consist of D-amino acids in reversed order, resulting in an altered peptide backbone but unchanged orientation of the side chains (Van Regenmortel, 1998).\nBALB/c mice were subjected to whole body γ-irradiation (6.5 Gy). One hour after irradiation, the mice received intraperitoneally either Stressin-1 (n=7; SEQ ID NO:1) or a modified, retro-inverso Stressin-1 peptide (n=7; SEQ ID NO:5), both at a concentration of 500 μg/mouse, or a sham injection with saline (n=6). The retro-inverso peptide was used to determine whether prolonged in vivo-half-life would give an advantage."}},
  "note": "Where no end group is shown, it is not given here. [ ]: non-standard residue; d: D form.",
  "data": [
    {"substance": "DLSTDALHYRTA [Stressin-2]", "values": [
      {"measurement": "Incidence of cell death induced by hyperthermia", "setting": "L12 cells with p53", "value": 90, "unit": "%"},
      {"measurement": "cells rescued from p53-mediated cell death", "setting": "L12 cells", "value": 25, "unit": "%"}
    ]},
    {"substance": "HPTNQQSLWRWP [Stressin-3]", "values": [
      {"measurement": "Incidence of cell death induced by hyperthermia", "setting": "L12 cells with p53", "value": 80, "unit": "%"}
    ]},
    {"substance": "LPPLPYP [Stressin-1, LPPLPYP]", "values": [
      {"measurement": "viability at 48 h, 50 µM", "setting": "[1]", "value": 100, "unit": "%"},
      {"measurement": "Survival of hepatocytes", "setting": "[2]", "value": 20, "unit": "%"}
    ]},
    {"substance": "PYPLPPL ([dP][dY][dP][dL][dP][dP][dL]; also: retro-inverso) [modified Stressin-1 peptide, retro-inverso Stressin-1 peptide, D-amino acids in reversed order]", "values": [
      {"measurement": "mice dead", "setting": "BALB/c mice; after 17 days", "value": 29, "unit": "%"},
      {"measurement": "mice recovered from radiation disease", "setting": "BALB/c mice; after 40 days", "value": 57, "unit": "%"}
    ]},
    {"substance": "SSLSVDYPTRYP [Stressin-4]", "values": [
      {"measurement": "Incidence of cell death induced by hyperthermia", "setting": "L12 cells with p53", "value": 80, "unit": "%"}
    ]}
  ]
}
